Test: HepG2 cytotoxicity screening (CellTiter-Glo)
Conditions: human, uninfected HepG2-A16-CD81 (EGFP) hepatocytes

## CNC(=O)c1cccnc1NCc1ccc(Cn2ccnc2)cc1 [UCSD-0807977]
  inhibition at 2 µM: 73.6%

## COc1cccc(CN2CCCC2c2ccc[nH]2)c1 (stereo not shown) [UCSD-0808841]
  inhibition at 2 µM: -1.63%

## O=C(c1cnc(OCC(F)(F)F)c(Cl)c1)N1CCc2ccc(O)cc2C1 [UCSD-0809130]
  inhibition at 2 µM: -5.64%

## COCCCC(=O)Nc1cc(Cl)c(Cl)cn1 [UCSD-0809266]
  inhibition at 2 µM: 59.5%

## Cc1cc(C)c(CCNC(=O)CN2CCCN(C(N)=O)CC2)c(C)c1 [UCSD-0809576]
  inhibition at 2 µM: -4.31%

## CC(C)(C)n1ncc2c1CCCC2NCc1ccc2c(c1)CCO2 (stereo not shown) [UCSD-0811334]
  inhibition at 2 µM: 2.05%

## O=C(NC1CC1)c1cc(NC(=O)N2CCOCC2)ccc1Cl [UCSD-0811531]
  inhibition at 2 µM: 1.26%

## CCCNC(=O)CN1CCOC(CC)C1 (stereo not shown) [UCSD-0814421]
  inhibition at 2 µM: -1.44%

## Clc1cnccc1NCc1cccc(COC2CCOCC2)c1 [UCSD-0814625]
  inhibition at 2 µM: 43.7%

## CC(C)n1cnnc1C1CCCN(S(=O)(=O)CC2CCCC2)C1 (stereo not shown) [UCSD-0815907]
  inhibition at 2 µM: 27.3%

## CS(=O)(=O)CCC(=O)NC1(c2cccc(C(F)(F)F)c2)CCC1 [UCSD-0816629]
  inhibition at 2 µM: -9.29%

## CC(NCc1cccs1)c1ccc(OCc2nccn2C)cc1 (stereo not shown) [UCSD-0817286]
  inhibition at 2 µM: -3.54%

## CCc1nnsc1C(=O)NC1CCN(CCOc2ccc(Br)cc2)CC1 [UCSD-0818165]
  inhibition at 2 µM: 23.1%

## Cc1cc(Br)cnc1NCCN1CCC(N(C)C)CC1 [UCSD-0818517]
  inhibition at 2 µM: 4.34%

## CC(C)CC(C)N(C)C(=O)CCn1cccn1 (stereo not shown) [UCSD-0818578]
  inhibition at 2 µM: -0.31%

## Cc1nc(C(=O)N2CC[C@@]3(C[C@@H](NS(C)(=O)=O)CCO3)C2)cs1 [UCSD-0821817]
  inhibition at 2 µM: 25.6%

## c1ccc(OC2COC3(CCN(Cc4ccccn4)CC3)C2)cc1 (stereo not shown) [UCSD-0822599]
  inhibition at 2 µM: 16.7%

## CN(Cc1ccncc1)C1COC2(CCN(Cc3nccn3C)CC2)C1 (stereo not shown) [UCSD-0822929]
  inhibition at 2 µM: 2.08%

## CN1CCN(CCc2ncnn2-c2ccc3c(c2)OCO3)CC1 [UCSD-0825202]
  inhibition at 2 µM: 8.32%

## COc1ccc(CN2CCC=C(C(C)NC(C)=O)C2)cc1 (stereo not shown) [UCSD-0826536]
  inhibition at 2 µM: 6.35%

## OC(c1ccccn1)C1CCN(Cc2cc3n(n2)CCNC3)CC1 (stereo not shown) [UCSD-0826546]
  inhibition at 2 µM: -15.7%

## CN1CCC(N(C)CCC(=O)N2CCC(CCc3ccccc3)CC2)C1 (stereo not shown) [UCSD-0826822]
  inhibition at 2 µM: 18.9%

## CCc1c(C(=O)N2CCN(C)[C@@H]3CS(=O)(=O)C[C@@H]32)[nH]c2ccccc12 [UCSD-0827053]
  inhibition at 2 µM: -0.18%

## Cc1nc(NCc2noc(C3CCCO3)n2)c2sccc2n1 (stereo not shown) [UCSD-0827338]
  inhibition at 2 µM: 37.4%

## CC(C)(C)c1ncc(C(=O)NCCSc2ccccn2)c(O)n1 [UCSD-0828026]
  inhibition at 2 µM: 27.1%

## O=C1N(CC2CC2)CCCC1(O)CN1CCc2[nH]ncc2C1 (stereo not shown) [UCSD-0829471]
  inhibition at 2 µM: 2.23%

## Cc1ccc(NC(=O)CNC(C)CN2CCCCC2)c(F)c1 (stereo not shown) [UCSD-0831198]
  inhibition at 2 µM: -1.94%

## N[C@@H]1CC[C@H](C(=O)NCCn2cc(Cl)cn2)C1 [UCSD-0831589]
  inhibition at 2 µM: -3.85%

## COc1ccc(C(=O)C2CCCN(c3cc(OC)ncn3)C2)c(C)c1 (stereo not shown) [UCSD-0833269]
  inhibition at 2 µM: 27.4%

## COc1cc(Oc2ncccc2C(F)(F)F)ccc1CN1CCCC1 [UCSD-0833465]
  inhibition at 2 µM: 1.7%

## Cc1cc(C)cc(CN2CCN(Cc3cccc(CCN)c3)CC2=O)c1 [UCSD-0834514]
  inhibition at 2 µM: -1.16%

## CN(C)S(=O)(=O)c1csc(C(=O)N2CCSCC2)c1 [UCSD-0836661]
  inhibition at 2 µM: 3.97%

## Nc1cc(N2CCC(c3cc(Cc4ccccc4)n[nH]3)CC2)ccn1 [UCSD-0836781]
  inhibition at 2 µM: -2.51%

## CCS(=O)(=O)N(C)c1ccc(C(=O)N2CCCC(C)C2)cc1 (stereo not shown) [UCSD-0838984]
  inhibition at 2 µM: 8.06%

## O=C1NCCN1C1CCN(Cc2nc(-c3ccccc3)no2)CC1 [UCSD-0839728]
  inhibition at 2 µM: -6.19%

## Cc1nn(C)c(Cl)c1C1CCCN1C(=O)c1ccc(C(N)=O)cn1 (stereo not shown) [UCSD-0841146]
  inhibition at 2 µM: 26.8%

## COc1cccc(-n2nnc(C(=O)N3CCN(C)CC3C)c2C)c1 (stereo not shown) [UCSD-0845525]
  inhibition at 2 µM: 69.9%

From publication PMC7155171, “Probing the Open Global Health Chemical Diversity Library for Multistage-Active Starting Points for Next-Generation Antimalarials” (ACS Infectious Diseases, 2020)
